# Test system: hedgehog signaling pathway
# Experiment: Gli-Luc Reporter Assay for Hh Pathway Inhibition (TMHh-12 cells, pTA-8×Gli-Luc reporter)
# Format: cell-based, Mouse
# Settings: Mus musculus, TMHh12, Ag1.5 1 nM; read-out: Hedgehog Inhibition IC50 (nM) (Ag1.5 1 nM)
# Experimental: Compounds of the present invention are assayed to evaluate their capacity to inhibit the hedgehog signaling pathway.
# Gli-Luc Reporter Assay for Hh Pathway Inhibition
# Mouse TM3 cells (obtained from American Type Culture Collection, ATCC, Manassas, Va.) are cultured in DMEM/F12 medium (Gibco/Invitrogen, Carlsbad, Calif.) supplemented with 5% heat inactivated horse serum and 2.5% FBS (Gibco/Invitrogen, Carlsbad, Calif.), 50 unit/mL penicillin and 50 μg/mL of streptomycin (Gibco/Invitrogen, Carlsbad, Calif.) at […] with 5% CO2 in air atmosphere. TM3 cells were transfected with pTA-8×Gli-Luc reporter plasmid. A stably transfected clone termed TMHh-12 was selected. […] To evaluate the IC50s of the antagonists, 8000 TMHh-12 cells were plated into each wells in 384-well plates with 50% DMEM/F12 medium supplemented with 2% FBS. After 12 hours, Hh pathway is activated by adding recombinant mouse Shh protein (expressed in E. coli, 8 μg/mL) or by adding Smo agonists. The testing compounds are added into plates with different concentrations. After 48 hours, the firefly luciferase luciferase activities are assayed with the Bright-Glo™ Luciferase Assay System (Promega, Madison, Wis.). The IC50 is measured when the effect of the compound reduces the luminescence signal by 50%. Toxicity of these compounds are evaluated in TM3 cells using CellTiter Glo assays or by TM3-Luc cell line (a TM3 cell stably transfected with a constitutive luciferase expression vector).
row,SMILES,IC50 [nM]
1,Clc1ccc(Nc2cccc3c2CCN(Cc2cccnc2)C3)cc1-c1ncc(-c2ccccc2)[nH]1 [Compound 51],11
2,Clc1ccc(Nc2cccc3c2CCNC3)cc1-c1ncc(-c2ccccc2)[nH]1 [Compound 57],22.7
3,CCC(CC)(C(=O)O)C(=O)N1CCc2c(cccc2Nc2ccc(Cl)c(-c3nc(-c4ccccc4)c[nH]3)c2)C1 [Compound 66],5.3
4,O=C(O)C1(C(=O)N2CCc3c(cccc3Nc3ccc(Cl)c(-c4ncc(-c5ccccc5)[nH]4)c3)C2)CCC1 [Compound 69],1.4
5,CC1(C(=O)N2CCc3c(cccc3Nc3ccc(Cl)c(-c4ncc(-c5ccccc5)[nH]4)c3)C2)CC1 [Compound 73],0.5
6,Cc1c(Nc2cccc3c2CCN(S(C)(=O)=O)C3)cccc1-c1ccc(C#N)cc1 [Compound 90],490
7,CS(=O)(=O)N1CCc2c(cccc2Nc2ccc(Cl)c(-c3nc(-c4ccccc4)co3)c2)C1 [Compound 96],263
8,Cc1ccc(Nc2cccc3c2CCN(S(C)(=O)=O)C3)cc1-c1nc2cnc(N(C)C)cc2[nH]1 [Compound 103],59
9,Cc1ccc(Nc2cccc3c2CCN(S(C)(=O)=O)C3)cc1-c1ccc(C(C)(C)C)cc1 [Compound 113],1030

# Same assay, conditions: Mus musculus, TMHh12, enzymatic and cellular assays for the inhibition of hedgehog signaling pathways; read-out: IC50 Ranges
row,SMILES,IC50 [nM]
1,O=C(O)CCN1CCc2c(Nc3ccc(Cl)c(-c4nc(-c5ccccc5)c[nH]4)c3)cccc2C1=O [Compound 50],10 to 100
2,Clc1ccc(Nc2cccc3c2CCN(Cc2cccnc2)C3)cc1-c1ncc(-c2ccccc2)[nH]1 [Compound 51],10 to 100
3,O=C(O)CN1CCc2c(cccc2Nc2ccc(Cl)c(-c3nc(-c4ccccc4)c[nH]3)c2)C1 [Compound 53],10 to 100
4,CN(C)CC(C)(C)CN1CCc2c(cccc2Nc2ccc(Cl)c(-c3ncc(-c4ccccc4)[nH]3)c2)C1 [Compound 54],0.001 to 1
5,CC(C)C(=O)N1CCc2c(cccc2Nc2ccc(Cl)c(-c3ncc(-c4ccccc4)[nH]3)c2)C1 [Compound 55],1 to 10
6,CC(=O)N1CCc2c(cccc2Nc2ccc(Cl)c(-c3ncc(-c4ccccc4)[nH]3)c2)C1 [Compound 56],0.001 to 1
7,Clc1ccc(Nc2cccc3c2CCNC3)cc1-c1ncc(-c2ccccc2)[nH]1 [Compound 57],10 to 100
8,CC(C(=O)O)N1CCc2c(cccc2Nc2ccc(Cl)c(-c3ncc(-c4ccccc4)[nH]3)c2)C1 (stereo not shown) [Compound 58],1 to 10
9,Cc1ccc(Nc2cccc3c2CCN(S(C)(=O)=O)C3)cc1-c1ncc(-c2cncnc2)[nH]1 [Compound 59],1 to 10
10,Cc1ccc(Nc2cccc3c2CCN(S(C)(=O)=O)C3)cc1-c1ncc(-c2cccnc2)[nH]1 [Compound 60],0.001 to 1
11,Cc1ccc(Nc2cccc3c2CCN(S(C)(=O)=O)C3)cc1-c1nc2cc(F)ccc2[nH]1 [Compound 61],0.001 to 1
12,FC(F)(F)CN1CCc2c(cccc2Nc2ccc(Cl)c(-c3ncc(-c4ccccc4)[nH]3)c2)C1 [Compound 62],0.001 to 1
13,Cc1ccc(Nc2cccc3c2CCN(S(C)(=O)=O)C3)cc1-c1nc2ncncc2[nH]1 [Compound 63],10 to 100
14,O=C(O)C(F)(F)CN1CCc2c(cccc2Nc2ccc(Cl)c(-c3nc(-c4ccccc4)c[nH]3)c2)C1 [Compound 64],1 to 10
15,CC(C)(C(=O)O)N1CCc2c(cccc2Nc2ccc(Cl)c(-c3nc(-c4ccccc4)c[nH]3)c2)C1 [Compound 65],1 to 10
16,CCC(CC)(C(=O)O)C(=O)N1CCc2c(cccc2Nc2ccc(Cl)c(-c3nc(-c4ccccc4)c[nH]3)c2)C1 [Compound 66],1 to 10
17,CC(C)(C(=O)O)C(=O)N1CCc2c(cccc2Nc2ccc(Cl)c(-c3ncc(-c4ccccc4)[nH]3)c2)C1 [Compound 67],1 to 10
18,O=C(O)C1(C(=O)N2CCc3c(cccc3Nc3ccc(Cl)c(-c4ncc(-c5ccccc5)[nH]4)c3)C2)CC1 [Compound 68],0.001 to 1
19,O=C(O)C1(C(=O)N2CCc3c(cccc3Nc3ccc(Cl)c(-c4ncc(-c5ccccc5)[nH]4)c3)C2)CCC1 [Compound 69],1 to 10
20,Cc1ccc(Nc2cccc3c2CCN(C(=O)C(C)(CO)CO)C3)cc1-c1nc2ccccc2[nH]1 [Compound 70],0.001 to 1
21,OCC(F)(F)CN1CCc2c(cccc2Nc2ccc(Cl)c(-c3nc(-c4ccccc4)c[nH]3)c2)C1 [Compound 71],0.001 to 1

row,SMILES,IC50 [nM]
1,O=C(CO)N1CCc2c(cccc2Nc2ccc(Cl)c(-c3ncc(-c4ccccc4)[nH]3)c2)C1 [Compound 72],0.001 to 1
2,CC1(C(=O)N2CCc3c(cccc3Nc3ccc(Cl)c(-c4ncc(-c5ccccc5)[nH]4)c3)C2)CC1 [Compound 73],0.001 to 1
3,O=C(N1CCc2c(cccc2Nc2ccc(Cl)c(-c3ncc(-c4ccccc4)[nH]3)c2)C1)C1(O)CC1 [Compound 74],0.001 to 1
4,Cc1ccc(Nc2cccc3c2CCN(C(=O)C(C)(CO)CO)C3)cc1-c1ncc(-c2cccnc2)[nH]1 [Compound 76],1 to 10
5,CC(C(=O)O)N1CCc2c(Nc3ccc(Cl)c(-c4nc(-c5ccccc5)c[nH]4)c3)cccc2C1=O (stereo not shown) [Compound 77],100 to 1000
6,C[C@H](C(=O)O)N1CCc2c(cccc2Nc2ccc(Cl)c(-c3nc(-c4ccccc4)c[nH]3)c2)C1 [Compound 78],1 to 10
7,C[C@@H](C(=O)O)N1CCc2c(cccc2Nc2ccc(Cl)c(-c3nc(-c4ccccc4)c[nH]3)c2)C1 [Compound 79],1 to 10
8,CC1(N2CCc3c(cccc3Nc3ccc(Cl)c(-c4ncc(-c5ccccc5)[nH]4)c3)C2)CC1 [Compound 80],1 to 10
9,Cc1ccc(Nc2cccc3c2CCN(C[C@H](O)CO)C3=O)cc1-c1nc2ccccc2[nH]1 [Compound 81],10 to 100
10,Clc1ccc(Nc2cccc3c2CCN(C2CC2)C3)cc1-c1ncc(-c2ccccc2)[nH]1 [Compound 82],0.001 to 1
11,O=C(O)C(=O)N1CCc2c(cccc2Nc2ccc(Cl)c(-c3ncc(-c4ccccc4)[nH]3)c2)C1 [Compound 83],10 to 100
12,OCC1(N2CCc3c(cccc3Nc3ccc(Cl)c(-c4ncc(-c5ccccc5)[nH]4)c3)C2)CC1 [Compound 84],0.001 to 1
13,Cc1ccc(Nc2cccc3c2CCN(CC(F)(F)CO)C3)cc1-c1nc2ccccc2[nH]1 [Compound 85],0.001 to 1
14,Clc1ccc(Nc2cccc3c2CCN(Cc2nn[nH]n2)C3)cc1-c1ncc(-c2ccccc2)[nH]1 [Compound 86],1 to 10
15,Clc1ccc(Nc2cccc3c2CCN(c2nn[nH]n2)C3)cc1-c1ncc(-c2ccccc2)[nH]1 [Compound 87],1 to 10
16,O=C1c2cccc(Nc3ccc(Cl)c(-c4ncc(-c5ccccc5)[nH]4)c3)c2CCN1C1(CO)CC1 [Compound 88],0.001 to 1
17,Cc1ccc(Nc2cccc3c2CCN(C2(CO)CC2)C3)cc1-c1nc2ccccc2[nH]1 [Compound 89],1 to 10
18,Cc1c(Nc2cccc3c2CCN(S(C)(=O)=O)C3)cccc1-c1ccc(C#N)cc1 [Compound 90],100 to 1000
19,Cc1ccc(-c2cnc(-c3cc(Nc4cccc5c4CCN(S(C)(=O)=O)C5)ccc3C)[nH]2)cn1 [Compound 91],1 to 10
20,OC[C@@H](O)CN1CCc2c(cccc2Nc2ccc(Cl)c(-c3ncc(-c4ccccc4)[nH]3)c2)C1 [Compound 93],1 to 10
21,CNc1ncc2nc(-c3cc(Nc4cccc5c4CCN(S(C)(=O)=O)C5)ccc3C)sc2n1 [Compound 94],10 to 100

row,SMILES,IC50 [nM]
1,CC1(CN2CCc3c(cccc3Nc3ccc(Cl)c(-c4ncc(-c5ccccc5)[nH]4)c3)C2)CC1 [Compound 95],0.001 to 1
2,CS(=O)(=O)N1CCc2c(cccc2Nc2ccc(Cl)c(-c3nc(-c4ccccc4)co3)c2)C1 [Compound 96],100 to 1000
3,Cc1ccc(Nc2cccc3c2CCN(CC2(C)CC2)C3)cc1-c1nc2ccccc2[nH]1 [Compound 97],1 to 10
4,COc1ccc(-c2cc(Nc3cccc4c3CCN(S(C)(=O)=O)C4)ccc2C)cn1 [Compound 98],10 to 100
5,COc1ccc(-c2cc(Nc3cccc4c3CCN(S(C)(=O)=O)C4)ccc2C)cc1 [Compound 99],10 to 100
6,COc1ccc(-c2cnc(-c3cc(Nc4cccc5c4CCN(S(C)(=O)=O)C5)ccc3C)[nH]2)cn1 [Compound 100],0.001 to 1
7,Cc1ccc(Nc2cccc3c2CCN(S(C)(=O)=O)C3)cc1-c1ncc(-c2ccc(C#N)cc2)[nH]1 [Compound 101],0.001 to 1
8,Cc1ccc(Nc2cccc3c2CCN(S(C)(=O)=O)C3)cc1-c1ccc(C#N)cc1 [Compound 102],1 to 10
9,Cc1ccc(Nc2cccc3c2CCN(S(C)(=O)=O)C3)cc1-c1nc2cnc(N(C)C)cc2[nH]1 [Compound 103],10 to 100
10,COc1cccc(-c2cnc(-c3cc(Nc4cccc5c4CCN(S(C)(=O)=O)C5)ccc3C)[nH]2)n1 [Compound 104],0.001 to 1
11,Cc1ccc(Nc2cccc3c2CCN(S(C)(=O)=O)C3)cc1-c1nc2ccccc2o1 [Compound 105],1 to 10
12,Cc1ccc(Nc2cccc3c2CCN(S(C)(=O)=O)C3)cc1-c1ncc(-c2ccc(CN(C)C)cc2)[nH]1 [Compound 106],1 to 10
13,Cc1ccc(Nc2cccc3c2CCN(S(C)(=O)=O)C3)cc1-c1ncc(-c2cnc(N(C)C)nc2)[nH]1 [Compound 107],1 to 10
14,Cc1ccc(Nc2cccc3c2CCN(S(C)(=O)=O)C3)cc1-c1ccc(CN(C)C)cc1 [Compound 108],100 to 1000
15,Cc1ccc(Nc2cccc3c2CCN(S(C)(=O)=O)C3)cc1-c1ccc(-c2ccccc2)cc1 [Compound 109],100 to 1000
16,COc1cc2[nH]c(-c3cc(Nc4cccc5c4CCN(S(C)(=O)=O)C5)ccc3C)nc2cn1 [Compound 110],10 to 100
17,Cc1ncc(Nc2cccc3c2CCN(S(C)(=O)=O)C3)cc1-c1nc2ccccc2[nH]1 [Compound 111],1 to 10
18,Cc1ccc(Nc2cccc3c2CCN(CC(F)(F)CO)C3)cc1-c1ccc(C#N)cc1 [Compound 112],10 to 100
19,Cc1ccc(Nc2cccc3c2CCN(S(C)(=O)=O)C3)cc1-c1ccc(C(C)(C)C)cc1 [Compound 113],1000 to 10000
20,CC(=O)c1ccc(-c2cc(Nc3cccc4c3CCN(S(C)(=O)=O)C4)ccc2C)cc1 [Compound 114],100 to 1000

# Same assay, conditions: enzymatic and cellular assays for the inhibition of hedgehog signaling pathways; read-out: IC50 Ranges
row,SMILES,IC50 [nM]
1,Cc1ccc(Nc2cccc3c2CCN(C2CCS(=O)(=O)CC2)C3)cc1-c1ncc(-c2cccnc2)[nH]1 [Compound 52],10 to 100
2,Cc1ccc(Nc2cccc3c2CCN(C2CCS(=O)(=O)CC2)C3)cc1-c1ncc(-c2cccnc2)[nH]1 [Compound 75],1 to 10
